Test results from patent US7166761B2, “Method of screening PTPζ activity promoter or inhibitor” (priority 2000, dated 2007).
Like-named read-outs stand apart in the source and are kept apart here.

How the values were obtained:
striatal synaptosomes = conditions: [3H] DA 1 to 10 nM, 30 degree C; for Km: read-out: [3H] DA uptake Km, mean±SEM of three
Description: Dopamine (DA) uptake was measured as follows. Striatal synaptosome tissue pools (3 animals/pool) were homogenized in 100 volume (v/w) of 0.32 M sucrose in a teflonglass homogenizer and centrifuged at 12,000 rpm for 10 minutes. The crude synaptosomal pellet was resuspended in 0.32 M sucrose at a concentration of 30 mg/ml (original wet weight) and divided into 30 μl aliquots. Each aliquot was added with 270 μl of Krebs-Ringer phosphate buffer with increasing concentrations of [^3H] DA (final 1–10 nM, […], Amersham Pharmacia Biotech UK Ltd.). After incubating the resultant solution for 3 minutes at 30° C., uptake was quickly terminated by filtration through Whatman GF/C glass filters. The filters were rinsed three times with 2.5 ml ice-cold 0.32 M sucrose and measured by using a liquid scintillation counter at an efficiency of 50%. Blank values were measured in the presence of 10 μM GBR12909.
[^3H] DA was mixed with striatal synaptosomes and [^3H] DA uptake into tissues was measured (the above-mentioned method A-6-1). The homogenate of the striatal synaptosomes was incubated for 2 minutes at 30° C. in the presence of [^3H] DA (1 to 10 nM).

mice = test: Effects of psychostimulant drugs on locomotor activity; type: in vivo, mouse
Description: The effects of psychostimulant drugs on locomotor activity were measured in a clear acrylic chamber (40×40×40 cm) by measuring animal movements with an electromagnetic activity monitoring system (sensor unit 0603, scanner 1099, Panlab). Before drug administration, the animals were acclimated to the measurement circumstance for at least 90 minutes. The animals were then administered with a stimulant drug, methamphetamine (METH) (1 mg/kg, s.c.), GBR12909 (2 mg/kg, i.p.), apomorphine (1 mg/kg, s.c.), or p-chloro-amphetamine (2 mg/kg, i.p.), and saline as administered to a control, and locomotor activity was monitored for the next 60 minutes.

nucleus accumbens (NAC) = test: In vivo microdialysis of nucleus accumbens: METH-induced DA release and locomotion; set-up: species or system mouse
Description: Mice were anaesthetized with sodium pentobarbital (80 mg/kg i.p.) and placed in a stereotaxic apparatus. A hole was drilled through the skull and an intracerebral guide cannula (CMA 11, CMA/Microdialysis AB) was inserted into the nucleus accumbens (NAC) and fixed with dental cement. The stereotaxic coordinates for implantation of the guide cannula in both wild-type and PTPζ-deficient mice were: anterior, +1.1 mm, ventral, +3.6 mm, lateral, +1.0 mm to the surface of bregma. 24 hours after the surgery, mice were chained to a counterbalance lever arm attached to a locomotor activity chamber (30×30 cm) with an infrared monitoring apparatus (SCANET LC-10, Toyo Sangyo Co., Ltd.). Dialysis probes (membrane length 1 mm; external diameter 0.24 mm; cuprophane CUP 11, CMA/Microdialysis AB) were inserted through the guide cannula and perfusion was performed with artificial cerebrospinal fluid (ACSF), pH 7.4, (in mM; 145.ONaCl, 2.7 KCl, 1.2 CaCl2, 1.0 MgCl2, and 2.0 NaH2PO4) at a flow rate of 2 μl/min. Perfusates were collected from freely moving animals every 20 minutes in a tube containing 20 μl of 0.4 M HClO4 (CMA 170). Samples were collected and assayed using HPLC-ECD as described above except for the following modifications: the column was MCM C-18 (4.6×150 mm) and the buffer contained 75 mM NaH2PO4, 1.7 mM 1-octanesulfonic acid sodium salt, 0.1 mM triethylamine, 25 μM EDTA·2Na and 10% acetonitrile, at flow rate of 0.55 ml/min at 30° C. The electrode was set at +320 mV. METH administration (1 mg/kg s.c.) or local infusion of high K^+ solution (in mM: 47.7 NaCl, 100.0 KCl, 1.2 CaCl2, 1.0 MgCl2, and 2.0 NaH2PO4, pH 7.4) through the microdialysis probe was performed after the state became steady.

mouse gastric epithelium = test: Gastric ulcer formation caused by oral pleiotrophin; type: in vivo; conditions: 48 hours
Description: The role of PTPζ in gastric ulcer formation caused by pleiotrophin was examined as follows. After a mouse (female) of 4 weeks old was starved for 24 hours (fed water ad libitum), pleiotrophin (Peptide Institute, Inc.) was orally administered to the mouse with a sound. 48 hours later, gastric specimens were prepared and the surface of inside wall of stomach was observed by a stereomicroscope, and then pathologic specimens were prepared by hematoxylen eosin staining and analyzed.

NCCc1ccc(O)c(O)c1 [[^3H] DA, dopamine]
[3H] DA uptake Vmax (striatal synaptosomes; PTPζ+/+ mice): 45.74 ± 2.77 pmol/3 min/mg
[3H] DA uptake Vmax (striatal synaptosomes; PTPζ−/− mice): 58.70 ± 1.03 pmol/3 min/mg
Km (striatal synaptosomes; PTPζ+/+ mice): 0.109 ± 0.00245 µM
Km (striatal synaptosomes; PTPζ−/− mice): 0.147 ± 0.0113 µM

CN1CCc2cccc3c2[C@H]1Cc1ccc(O)c(O)c1-3 [apomorphine]
locomotor activity, responsiveness of PTPζ-deficient mice (mice; 2 mg/kg, s.c., total counts during 60 minutes after administration): normal

CN[C@@H](C)Cc1ccccc1 [methamphetamine]
DA release in NAC, PTPζ-deficient compared to wild-type mice (nucleus accumbens (NAC); PTPζ−/− mice (n=6), 1 mg/kg, s.c., microdialysis): markedly diminished DA release
METH-enhanced locomotion, PTPζ−/− compared to wild-type mice (nucleus accumbens (NAC); freely moving animals during microdialysis, infrared monitoring apparatus): statistically attenuated
extracellular DA in nucleus accumbens (nucleus accumbens (NAC); wild-type mice (n=7), 1 mg/kg, s.c., microdialysis): definitely increased
locomotor response, PTPζ−/− compared to wild-type mice (mice; 1 mg/kg, s.c., electromagnetic sensors, n=9 per genotype): significantly attenuated locomotor response

CC(N)Cc1ccc(Cl)cc1 (centres unmarked) [p-chloro-amphetamine]
locomotor activity, sensitivity of PTPζ-deficient mice (mice; 2 mg/kg, i.p., total counts during 60 minutes after administration, 5-HT liberator): hyposensitive

B1: pleiotrophin: a heparin-binding secretory protein of 18 kD that binds to extracellular regions of PTPζ (protein, UniProt P21246 33-168, looked up)
Pleiotrophin: GKKEKPEKKVKKSDCGEWQWSVCVPTSGDCGLGTREGTRTGAECKQTMKTQRCKIPCNWKKQFGAECKYQFQAWGECDLNTALKTRTGSLKRALHNAECQKTVTISKPCGKLTKPKPQAESKKKKKEGKKQEKMLD
hematoxylen eosin staining of gastric specimens (mouse gastric epithelium; PTPζ-deficient mice): totally normal
epithelial damage on gastric epithelium under a stereomicroscope (mouse gastric epithelium; PTPζ−/− mice): no damage was observed
epithelial damage on gastric epithelium under a stereomicroscope (mouse gastric epithelium; wild-type mice): Profuse bleeding
hematoxylen eosin staining of gastric specimens (mouse gastric epithelium; wild-type mice): obvious damage
